Values belong to the compound of their own block, whether it stands above or below them.
Assays:
[1] = target: T1, Solute carrier organic anion transporter family member 1A2 (OATP1A2) (Homo sapiens, UniProt P46721); experiment: TP_TRANSPORTER: uptake in Xenopus laevis oocytes; format: functional, cell-based, Oocyte; settings: Xenopus laevis oocytes expressing OATP1A2 (SLCO1A2)
T1 sequence (P46721 whole entry): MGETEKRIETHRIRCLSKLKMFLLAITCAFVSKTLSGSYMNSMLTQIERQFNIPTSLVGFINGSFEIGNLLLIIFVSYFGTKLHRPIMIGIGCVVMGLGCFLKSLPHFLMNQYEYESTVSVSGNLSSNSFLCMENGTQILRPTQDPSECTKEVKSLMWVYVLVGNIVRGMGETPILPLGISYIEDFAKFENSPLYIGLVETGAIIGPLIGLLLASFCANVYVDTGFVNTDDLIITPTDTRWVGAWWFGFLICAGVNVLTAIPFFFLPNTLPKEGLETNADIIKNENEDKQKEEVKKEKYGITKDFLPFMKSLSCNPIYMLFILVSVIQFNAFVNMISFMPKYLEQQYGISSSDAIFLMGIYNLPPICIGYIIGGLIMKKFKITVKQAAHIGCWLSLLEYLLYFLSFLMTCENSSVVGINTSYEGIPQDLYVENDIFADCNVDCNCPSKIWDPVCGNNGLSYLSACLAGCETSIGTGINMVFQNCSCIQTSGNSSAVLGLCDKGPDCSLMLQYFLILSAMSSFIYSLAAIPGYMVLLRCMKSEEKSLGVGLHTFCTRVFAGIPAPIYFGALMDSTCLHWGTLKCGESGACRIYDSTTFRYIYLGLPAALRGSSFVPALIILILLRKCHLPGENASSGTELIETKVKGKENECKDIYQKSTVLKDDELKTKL

[2] = target: T1, Solute carrier organic anion transporter family member 1A2 (OATP1A2); experiment: TP_TRANSPORTER: inhibition of Taurocholate uptake (Taurochorate: 10 uM, TCDC: 100 uM) in Xenopus laevis oocytes; format: functional, cell-based, Oocyte; parameters: scale not given: the % may be the effect or the level left; settings: Xenopus laevis oocytes expressing OATP1A2 (SLCO1A2), probe taurocholate, read-out: Activity
[3] = target: T1, Solute carrier organic anion transporter family member 1A2 (OATP1A2); experiment: TP_TRANSPORTER: inhibition of BSP uptake (BSP: 10 uM, TCDC: 100 uM) in Xenopus laevis oocytes; format: functional, cell-based, Oocyte; parameters: scale not given: the % may be the effect or the level left; settings: Xenopus laevis oocytes expressing OATP1A2 (SLCO1A2), probe BSP (sulfobromophthalein), read-out: Activity
[4] = target: T1, Solute carrier organic anion transporter family member 1A2 (OATP1A2); experiment: TP_TRANSPORTER: inhibition of Taurocholate uptake (Taurochorate: 10 uM, ICG: 100 uM) in Xenopus laevis oocytes; format: functional, cell-based, Oocyte; parameters: scale not given: the % may be the effect or the level left; settings: Xenopus laevis oocytes expressing OATP1A2 (SLCO1A2), probe taurocholate, read-out: Activity
[5] = target: T1, Solute carrier organic anion transporter family member 1A2 (OATP1A2); experiment: TP_TRANSPORTER: inhibition of BSP uptake (BSP: 10 uM, ICG: 100 uM) in Xenopus laevis oocytes; format: functional, cell-based, Oocyte; parameters: scale not given: the % may be the effect or the level left; settings: Xenopus laevis oocytes expressing OATP1A2 (SLCO1A2), probe BSP (sulfobromophthalein), read-out: Activity
[6] = target: T2, Solute carrier organic anion transporter family member 1A2 (Homo sapiens, UniProt P46721); experiment: TP_TRANSPORTER: inhibition of BSP uptake (BSP: 10 uM, GC: 100 uM) in Xenopus laevis oocytes; format: functional, cell-based; parameters: scale not given: the % may be the effect or the level left; settings: oocyte
T2 sequence (P46721 whole entry): T1 sequence (P46721 whole entry)

[7] = target: T1, Solute carrier organic anion transporter family member 1A2 (OATP1A2); experiment: TP_TRANSPORTER: inhibition of Taurocholate uptake (Taurochorate: 10 uM, GC: 200 uM) in Xenopus laevis oocytes; format: functional, cell-based, Oocyte; parameters: scale not given: the % may be the effect or the level left; settings: Xenopus laevis oocytes expressing OATP1A2 (SLCO1A2), probe taurocholate, read-out: Activity
[8] = target: T1, Solute carrier organic anion transporter family member 1A2 (OATP1A2); experiment: TP_TRANSPORTER: inhibition of Taurocholate uptake (Taurochorate: 10 uM, TUDC: 100 uM) in Xenopus laevis oocytes; format: functional, cell-based, Oocyte; parameters: scale not given: the % may be the effect or the level left; settings: Xenopus laevis oocytes expressing OATP1A2 (SLCO1A2), probe taurocholate, read-out: Activity
[9] = target: T1, Solute carrier organic anion transporter family member 1A2 (OATP1A2); experiment: TP_TRANSPORTER: inhibition of BSP uptake (BSP: 10 uM, TUDC: 100 uM) in Xenopus laevis oocytes; format: functional, cell-based, Oocyte; parameters: scale not given: the % may be the effect or the level left; settings: Xenopus laevis oocytes expressing OATP1A2 (SLCO1A2), probe BSP (sulfobromophthalein), read-out: Activity
[10] = target: T2, Solute carrier organic anion transporter family member 1A2; experiment: TP_TRANSPORTER: inhibition of Taurocholate uptake (Taurochorate: 10 uM, CDCA: 200 uM) in Xenopus laevis oocytes; format: functional, cell-based; parameters: scale not given: the % may be the effect or the level left; settings: oocyte
[11] = target: T2, Solute carrier organic anion transporter family member 1A2; experiment: TP_TRANSPORTER: inhibition of BSP uptake (BSP: 10 uM, CDCA: 200 uM) in Xenopus laevis oocytes; format: functional, cell-based; parameters: scale not given: the % may be the effect or the level left; settings: oocyte
[12] = target: T1, Solute carrier organic anion transporter family member 1A2 (OATP1A2); experiment: TP_TRANSPORTER: inhibition of BSP uptake (BSP: 10 uM, UDCA: 100 uM) in Xenopus laevis oocytes; format: functional, cell-based, Oocyte; parameters: scale not given: the % may be the effect or the level left; settings: Xenopus laevis oocytes expressing OATP1A2 (SLCO1A2), probe BSP (sulfobromophthalein), read-out: Activity
[13] = target: T2, Solute carrier organic anion transporter family member 1A2; experiment: TP_TRANSPORTER: inhibition of Taurocholate uptake (Taurochorate: 10 uM, UDCA: 200 uM) in Xenopus laevis oocytes; format: functional, cell-based; parameters: scale not given: the % may be the effect or the level left; settings: oocyte

SMILES: O=C1OC(c2ccc(O)c(S(=O)(=O)O)c2)(c2ccc(O)c(S(=O)(=O)O)c2)c2c(Br)c(Br)c(Br)c(Br)c21 [SULFOBROMOPHTHALEIN SODIUM]
Km [1]: 20 µM

SMILES: C[C@H](CCC(=O)O)[C@H]1CC[C@H]2[C@@H]3[C@H](O)C[C@@H]4C[C@H](O)CC[C@]4(C)[C@H]3CC[C@]12C [CHENODIOL]
Activity [10]: 15% | Activity [11]: 34%

SMILES: C[C@H](CCC(=O)O)[C@H]1CC[C@H]2[C@@H]3[C@@H](O)C[C@@H]4C[C@H](O)CC[C@]4(C)[C@H]3CC[C@]12C [URSODIOL]
activity at 100 µM [12]: 57% | Activity [13]: 14%

The next lines start with the values.

activity at 100 µM [2]: 28% | activity at 100 µM [3]: 17%
SMILES: C[C@H](CCC(=O)NCCS(=O)(=O)O)[C@H]1CC[C@H]2[C@@H]3[C@H](O)C[C@@H]4C[C@H](O)CC[C@]4(C)[C@H]3CC[C@]12C [TAUROCHENODEOXYCHOLATE]

activity at 100 µM [4]: 28% | activity at 100 µM [5]: 60%
SMILES: CC1(C)C(/C=C/C=C/C=C/C=C2\N(CCCCS(=O)(=O)O)c3ccc4ccccc4c3C2(C)C)=[N+](CCCCS(=O)(=O)[O-])c2ccc3ccccc3c21 [INDOCYANINE GREEN]

Activity [6]: 81% | activity at 200 µM [7]: 24%
SMILES: C[C@H](CCC(=O)NCC(=O)O)[C@H]1CC[C@H]2[C@@H]3[C@H](O)C[C@@H]4C[C@H](O)CC[C@]4(C)[C@H]3C[C@H](O)[C@]12C [GLYCOCHOLIC ACID]

activity at 100 µM [8]: 9% | Km [1]: 19 µM | activity at 100 µM [9]: 9%
SMILES: C[C@H](CCC(=O)NCCS(=O)(=O)O)[C@H]1CC[C@H]2[C@@H]3[C@@H](O)C[C@@H]4C[C@H](O)CC[C@]4(C)[C@H]3CC[C@]12C [TAURURSODIOL]
